Values after ≈ are worked out from the molar mass of the structure shown. Counter-ions that a name gives are not always drawn. Blank lines part the entries; values can stand above or below the compound they belong to.
Assays:
[1] = Toxicity test: acute toxicity (LD50) in mice; details: mouse, in vivo
Experimental: (§1) The acute toxicity (LD50) of several typical examples of the present compounds [I] was tested of 5-weeks-old male ddY strain mice and male SD straih rats. For this purpose, the compounds of Examples 2 and 4 were selected as typical examples. […] For rats, their LD50 values were not less than 4.0 g/kg when administered orally, and not less than 200 mg/kg when administered intravenously.

[2] = Toxicity test: acute toxicity (LD50) in rats; details: rat, in vivo
Experimental: as §1

[3] = In vitro test: antagonistic effect on leukotriene D4-induced contraction of excised guinea pig terminal ileum; assay type: cell-based, guinea pig (male, Hartley strain); details: guinea pig terminal ileum contraction, leukotriene D4 0.3 ng/ml, with atropine and mepyramine; for IC50: Cavia porcellus
Experimental: (§2) The antagonistic effect on leukotriene D4 of the present compounds [I] was tested by using the terminal ileum excised from a male guinea pig of the Hartley strain. Specifically, the terminal ileum was suspended, under aerated conditions, in 10 ml of Tyrode's solution containing 5×10^-7 M atropine and 1×10^-6 M mepyramine. Then, a test compound and leukotriene D4 (manufactured by Wako Junyaku Co., Ltd.) were successively added thereto with an interval of 30 seconds. After the lapse of 4 to 6 minutes, the degree of contraction of the ileum was measured with a Model TD-112S Isotonic Transducer (manufactured by Nippon Koden Co., Ltd.). The test compound and leukotriene D4 were used in such amounts as to give concentrations of 10^-9 to 10^-3 g/ml and 0.3 ng/ml, respectively.
(§3) The antagonistic effect on leukotriene D4 of each test compound was evaluated in terms of the concentration of the test compound at which the ileum contraction reaction induced by leukotriene D4 was inhibited by 50% (hereinafter referred to as IC50) Specifically, at varying concentrations of each test compound, the percent inhibition of contraction was calculated from the measured degree of contraction of the ileum according the following equation [formula] On the basis of the data thus obtained, a dose-response curve was prepared and used to determine the IC50 value of the test compound.

[4] = tested on: leukotriene D4; assay: as above; assay type: cell-based, guinea pig (male, Hartley strain); details: confirmatory experiment by the inventors; result in words
Experimental: as §2, §3

Structure (SMILES): CCCc1c(OCc2cccn3c(=O)c(CC(=O)O)cnc23)ccc(C(C)=O)c1O [Example 2, [9-(4-Acetyl-3-hydroxy-2-n-propylphenoxymethyl)-4-oxo-pyrido[1,2-a]pyrimidin-3-yl]acetic acid]
LD50 ([1]; intravenous): ≥ 100 mg/kg
LD50 ([1]; oral): ≥ 4000 mg/kg
LD50 ([2]; intravenous): ≥ 200 mg/kg
LD50 ([2]; oral): ≥ 4000 mg/kg
IC50 [3]: 0.04 µg/mL (≈ 0.0975 µM)

Structure (SMILES): CCCc1c(OCc2cccn3c(=O)c(CCC(=O)O)cnc23)ccc(C(C)=O)c1O [Example 4, 3-[9-(4-Acetyl-3-hydroxy-2-n-propylphenoxymethyl)-4-oxo-pyrido[1,2-a]pyrimidin-3-yl]propionic acid]
LD50 ([1]; intravenous): ≥ 100 mg/kg
LD50 ([1]; oral): ≥ 4000 mg/kg
LD50 ([2]; intravenous): ≥ 200 mg/kg
LD50 ([2]; oral): ≥ 4000 mg/kg
Antagonistic effect on leukotriene D4 IC50 [3]: 0.01 µg/mL

Structure (SMILES): CCCc1c(OCc2cccn3c(=O)c(CCC(=O)O)cnc23)ccc(C(C)=O)c1O [Example 7, 3-[9-(4-Acetyl-3-hydroxy-2-n-propylphenoxymethyl)-4-oxo-pyrido[1,2-a]pyrimidin-3-yl]propionic acid potassium salt]
Antagonistic effect on leukotriene D4 IC50 ([3]; potassium salt): 0.03 µg/mL

More lines, main results first:

IC50 [3]: 0.3 µg/mL (≈ 0.596 µM)
Structure (SMILES): CCCc1c(OCc2cc(Br)cn3c(=O)c(CCC(=O)O)cnc23)ccc(C(C)=O)c1O [Example 5, 3-[9-(4-Acetyl-3-hydroxy-2-n-propylphenoxymethyl)-7-bromo-4-oxo-pyrido[1,2-a]pyrimidin-3-yl]propionic acid]

IC50 [3]: 0.8 µg/mL (≈ 1.88 µM)
Structure (SMILES): CCCc1c(OCc2c(C)ccn3c(=O)c(CC(=O)O)cnc23)ccc(C(C)=O)c1O [Example 3, [9-(4-Acetyl-3-hydroxy-2-n-propylphenoxymethyl)-8-methyl-4-oxo-pyrido[1,2-a]pyrimidin-3-yl]acetic acid]

IC50 [3]: 0.4 µg/mL (≈ 0.942 µM)
Structure (SMILES): CCCc1c(OCc2ccc3ncc(CCC(=O)O)c(=O)n3c2)ccc(C(C)=O)c1O [Example 6, 3-[7-(4-acetyl-3-hydroxy-2-n-propylphenoxymethyl)-4-oxo-pyrido[1,2-a]pyrimidin-3-yl]propionic acid]

IC50 [3]: ≥ 10 µg/mL
Structure (SMILES): O=C(O)c1cnc2c(OCc3ccccc3)cccn2c1=O [Compound A, 9-Benzyloxy-4-oxo-pyrido[1,2-a]pyrimidine-3-carboxylic acid, reference compound]
antagonistic effect on SRS-A as represented by leukotriene D4 [4]: no antagonistic effect on SRS-A

IC50 [3]: 0.03 µg/mL (≈ 0.0757 µM)
Structure (SMILES): CCCc1c(OCc2cccn3c(=O)c(C(=O)O)cnc23)ccc(C(C)=O)c1O [Example 1, 9-(4-Acetyl-3-hydroxy-2-n-propylphenoxymethyl)-4-oxo-pyrido[1,2-a]pyrimidine-3-carboxylic acid]
